# Source: patent US20230172971A1, “ANTIBIOTIC AND ANTI-INFLAMMATORY COMPOSITIONS AND METHODS OF USE” (priority 2020, published 2023)
# Assays:
# E. coli BAA-2452 = experiment: H33342 bisbenzimide dye uptake assay, E. coli BAA-2452; type: cell-based, Escherichia coli; conditions: E. coli BAA-2452, 7×10^8 CFU/mL, non-lethal concentration
# Procedure: Overnight culture of E. coli BAA-2452™ and K. pneumoniae BAA-2146™ were used to inoculate fresh CAMHB media for another 5 hr at 35° C. with shaking. Bacterial cells were collected by centrifugation at 6000 rpm for 40 min and resuspended in PBS. The OD600 of the cell suspension was adjusted to about 1.0 and kept at room temperature during the experiment. Aliquots (180 μL/well) of the cell suspension were transferred to a 96-well flat-bottom black plate in the format of column 1, PBS blank; column 2, untreated control cells; column 3, cells+potentiator (sub-lethal concentration). Five technical replicates of each group were conducted. Fluorescent probe Hoechst 33342 bisbenzimide (H33342) was added (20 μL) to each well with a final concentration of 5 μM. Fluorescence was read immediately after the addition of H33342 by a Tecan Infinite M20 plate reader with the excitation and emission filters of 355 and 460 nm for H33342. Fluorescence data were normalized to the emission before cells were added in the PBS control, and they were plotted against time to show the cellular uptake of H33342 over 10 min. Control experiments of dye+600-Da BPEI were unchanged from fluorescence emission values obtained with dye only.
# MRSA OU11 = experiment: Resazurin cell viability assay, MRSA OU11; type: cell-based, Staphylococcus aureus
# Procedure: Cell viability assays with resazurin were performed with MRSA OU11 cells grown in TSB as similar to the procedure of cell-permeation assays until they reach a density of ˜7×10^9 CFU/mL. Then the cell culture was transferred into a 96-well plate (100 μL/well) for BPEI or polymyxin B (PmB) treatments at varied concentrations from 64-512 μg/mL. Controls of untreated and positive control of 5% bleach were also conducted. The plate was incubated at 37° C. overnight. Resazurin (50 μL; final concentration of 50 μg/mL) was then added and, after 1 hour of incubation, the fluorescence intensity was measured (λex=560 nm; λen, =590 nm).
# Gram-negative bacteria = conditions: paradigm; cited from earlier work
# Gram-positive bacteria = conditions: paradigm; cited from earlier work
substance,measurement,setting,value
polymyxin B,intracellular accumulation of H33342 (fluorescence) vs untreated cells,E. coli BAA-2452,increases
same,cell viability (resazurin),"MRSA OU11; MRSA OU11, 64 μg/mL PmB",greater cell death than 512 μg/mL 600-Da BPEI
same,cell viability (resazurin),"MRSA OU11; MRSA OU11, 512 μg/mL PmB",complete loss of MRSA OU11 viability
same,cell viability (resazurin),"MRSA OU11; MRSA OU11, ~7×10^9 CFU/mL, 64-512 μg/mL, overnight",more lethal
same,MIC,Gram-negative bacteria,≤ 2 µg/mL
same,concentration required (MIC),Gram-positive bacteria,≥ 32 µg/mL
